Results reported in patent US7156881B2, “Counteracting bioprosthetic calcification” (The Children's Hospital of Philadelphia, priority 2002, dated 2007).
Marks after values point to notes of the source that are not given here.

Key:
[1] = Kinetics of epoxy-ring opening with different nucleophiles (t-butyl glycidyl ether in water); type: physicochemical; conditions: for reactivity relative to nucleophiles without a sulfur atom: 20° C. and pH of about 7; for Reacted substrate / k · 10^3: 20° C., pH ca. 7
Excerpt: Pursuant to the present invention, the functional groups need to cleave an epoxy ring, and nucleophilic groups are illustrative in this respect.

[2] = Kinetics of epoxy-ring opening with different nucleophiles (triglicidyl amine in water); type: physicochemical; conditions: 20° C.; for K * 10^3 / Reacted substrate: pH ca. 7; for rate of reaction with TGA-epoxy (k): pH 7.4, 20 mM of MABP
Excerpt: The bioprosthetic materials treated by both MABP and TGA show a significant improvement in anti-calcification ability. Consequently, it is believed that the MABP has successfully met the above-mentioned criteria, i.e., the reactive functional group is active enough to dominate the co-attachment reaction between MABP and TGA, and to cause MABP to attach to a TGA epoxide more completely.

[3] = tested on: porcine aortic valve cusps; assay: 21-day rat subdermal implants, Ca content by atomic absorption: cusp; type: in vivo, Sprague-Dawley rats; conditions: Cusp implanted
Protocol: (§1) A series of bioprosthetic material samples were prepared, in order to compare the anti-calcification efficacy of TGA-MABP with TGA crosslinking alone. The material used were porcine aortic valve cusps, porcine aortic wall, and bovine pericardium. These materials were obtained fresh at slaughter and transported to the laboratory on ice.

[4] = Rat weight in 21-day subdermal implant study; conditions: 21-day rat subdermal implants
Protocol: All materials were rinsed thoroughly with normal saline, and 1 cm^2 pieces of aortic wall, pericardium, or individual cusp leaflets crosslinked with 100 mM TGA with the inclusion of 20 mM MABP, as described above with daily replacement of solutions for 7 days. After thorough rinse with normal saline, biomaterials were surgically implanted in dorsal subdermal pouches of 75–80 g male Sprague-Dawley rats as previously described. Animals were sacrificed after 21 days, implants recovered, rinsed, dried, and analyzed for Ca content by atomic absorption spectroscopy (AA).

[5] = TGA cross-linking of bovine pericardium, shrink temperature (Ts) by DSC; type: physicochemical; conditions: for shrink temperature (Ts): 100 mM TGA, borate mannitol buffer pH 7.4, room temperature
Protocol: Bovine pericardium was obtained fresh at slaughter and transported to the lab on ice. After extensive rinsing with normal saline, the tissue was cut into 1 cm squares and segregated into 5 groups for crosslinking as described below. Reactions were carried out at room temperature on a rocker platform for 7 days with daily replacement of each solution with one freshly prepared in borate mannitol buffer (9.33 g/l sodium tetraborate, −˜2 g mannitol to pH 7.4). Pericardial samples were removed from the reaction vessels daily, rinsed and stored individually at 4° C. in normal saline for shrink temperature determination (Ts) by Differential Scanning […] (DSC) analysis at the end of the experiment.
MABP stock solution was prepared daily by adding water, neutralizing with NaHCO3, and diluting to one of the three desired concentrations (2 mM, 20 mM, 100 mM) in boratemannitol buffer. TGA then was added to each solution to a final concentration of 100 mM TGA. Two additional groups were treated solely with 100 mM TGA in the same buffer for 7 days, and one of these treated again on day 8 with 100 mM MABP in buffer.
Further experiments were done testing the anti-calcification potential of MABP co-attachment utilized the maximum non-interfering condition tested: 20 mM MABP and 100 mM TGA in borate-mannitol buffer, pH 7.4. Those experimental data are shown in Table III and graphically in FIG. 1.

[6] = tested on: bovine pericardial calcification; conditions: TGA-crosslinking methodology, related art; cited from earlier work
[7] = tested on: aortic wall segment of a bioprosthetic implant; conditions: TGA-crosslinking methodology, related art; cited from earlier work
bovine pericardium = assay: 21-day rat subdermal implants, Ca content by atomic absorption: pericardium; type: in vivo, Sprague-Dawley rats; conditions: Pericardium implanted
Protocol: as §1

porcine aortic wall = assay: 21-day rat subdermal implants, Ca content by atomic absorption: aortic wall; type: in vivo, Sprague-Dawley rats; conditions: Aortic wall implanted
Protocol: as §1

[8] = substrate 0.1 M, epoxide 0.3 M, time of reaction 3 h
[9] = substrate 0.1 M, epoxide 0.3 M, time of reaction 19 h
[10] = substrate 0.2 M, epoxide 0.1 M, time of reaction 1 h
[11] = substrate 0.4 M, epoxide 0.3 M, time of reaction 120 h
[12] = substrate 0.1 M, epoxide 0.3 M, time of reaction 48 h
[13] = substrate 0.2 M, epoxide 0.06 M, time of reaction 1.75 h
[14] = substrate 0.2 M, epoxide 0.1 M, time of reaction 2 h
[15] = substrate 0.1 M, epoxide 0.3 M, time of reaction 120 h
[16] = substrate 0.1 M, epoxide 0.3 M, time of reaction 5 min
[17] = substrate 0.1 M, epoxide 0.3 M, time of reaction 15 min

In the case of `CSCCC(NC(C)=O)C(=O)O` (racemic) [N-Acetyl-DL-methionine], the “reactivity relative to nucleophiles without a sulfur atom” value [1] is reported as “at least twenty times more reactive”, the Reacted substrate [1, 8] is reported as 33% and the “k · 10^3” value [1, 8] is reported as 473 l/mol · h. For the same compound, the Reacted substrate [1, 9] was 89% and the “k · 10^3” value [1, 9] was 488 l/mol · h.
For `N[C@@H](CS)C(=O)O` [Cysteine], the “reactivity relative to nucleophiles without a sulfur atom” value [1] was “at least twenty times more reactive”, the Reacted substrate [1, 10] was 13% and the “k · 10^3” value [1, 10] was 1618 l/mol · h. For the same compound, the “K * 10^3” value [2, 10] was 1618 1/mol * h and the Reacted substrate [2, 10] was 13%.
For `O=CCCCC=O` [Glutaraldehyde], the Ca ([3]; 21-day rat subdermal implants) was 89.03 +/− 5.59* μg/mg dry wt and the Rat weight ([4]; Cusp implanted) was 268.8 ± 6.5 g.
In the case of `CC(O)(P(=O)(O)O)P(=O)(O)O` [HEDP], the Reacted substrate [1, 11] is reported as 5.5% and the “k · 10^3” value [1, 11] is reported as 1.6 l/mol · h.
With `c1c[nH]cn1` [Imidazole] the Reacted substrate [1, 12] was 28% and the “k · 10^3” value [1, 12] was 24 l/mol · h.
For `O=P(O)(O)C(CNCCS)P(=O)(O)O` [MABP, 2-(2-mercaptoethylamino)-ethylidene-1,1-bisphosphonate], the “interference of MABP with the TGA crosslinking process (DSC)” value ([5]; equimolar concentration of MABP and TGA (100 mM each) versus the other conditions) was “grossly slowed the crosslinking process”, the “effects on rat weight gain” value ([4]; inclusion of MABP) was “no significant effects” and the “rate of reaction with TGA-epoxy (k)” value [2] was 1.2 mol⁻¹ h⁻¹. For the same compound, the “K * 10^3” value [2, 13] was 1120 1/mol * h and the Reacted substrate [2, 13] was 10%.
For `O=P(O)(O)C(CS)P(=O)(O)O` [MEBP, 2-mercaptoethlidene-1,1-bisphosphonate], the “rate of reaction with TGA-epoxy (k)” value [2] was 0.035 mol⁻¹ h⁻¹, the “K * 10^3” value [2, 14] was 35 1/mol * h and the Reacted substrate [2, 14] was 0.7%.
In the case of `CC(=O)N[C@@H](Cc1c[nH]cn1)C(=O)O` [N-Acetyl-L-histidine], the Reacted substrate [1, 15] is reported as 60% and the “k · 10^3” value [1, 15] is reported as 29 l/mol · h.
For `C1OC1CN(CC1CO1)CC1CO1` (centres unmarked) [TGA, triglycidyl amine], the “inhibiting bovine pericardial calcification” value [6] is given as “less effective”, the “inhibition of calcification of the aortic wall segment” value [7] is given as “relatively ineffective” and the “shrink temperature (Ts)” value ([5]; Day 1 of crosslinking) is given as 72.6 +/− 1.0. The “shrink temperature (Ts)” value ([5]; Day 2 of crosslinking) was 77.4 +/− 0.5, the “shrink temperature (Ts)” value ([5]; Day 3 of crosslinking) was 78.2 +/− 0.3 and the “shrink temperature (Ts)” value ([5]; Day 4 of crosslinking) was 79.6 +/− 0.4. For the same compound, the “shrink temperature (Ts)” value ([5]; Day 6 of crosslinking) was 80.2 +/− 0.3, the “shrink temperature (Ts)” value ([5]; Day 7 of crosslinking) was 81.0 +/− 0.6 and the Ca (bovine pericardium) was 11.23 +/− 4.74 μg/mg dry wt. For the same compound, the Ca (porcine aortic wall) was 7.73 +/− 0.90 μg/mg dry wt, the Ca ([3]; rat subdermal implants, prev. exp.) was 2.07 +/− 0.31 μg/mg dry wt and the Rat weight ([4]; Aortic wall implanted) was 247.8 ± 7.9 g. The Rat weight ([4]; Pericardium implanted) was 268.2 ± 9.9 g.
With `O=S(O)(O)=S` [Thiosulfate] the “reactivity relative to nucleophiles without a sulfur atom” value [1] was “at least twenty times more reactive”, the Reacted substrate [1, 16] was 30% and the “k · 10^3” value [1, 16] was 23 000 l/mol · h. For the same compound, the Reacted substrate [1, 17] was 52%, the “k · 10^3” value [1, 17] was 17 000 l/mol · h and the “K * 10^3” value [2, 16] was 23000 1/mol * h. The Reacted substrate [2, 16] was 30%, the “K * 10^3” value [2, 17] was 17000 1/mol * h and the Reacted substrate [2, 17] was 52%.
For Phosphate, the Reacted substrate [1, 11] was 12% and the “k · 10^3” value [1, 11] was 3.9 l/mol · h.
